Where a name gives a salt, the structure may show the parent alone.
Assays:
[1] = test system: IgE antibody production by B cells; test: Evaluation of inhibitory activity against IgE antibody production; assay type: cell-based; details: B-cell; mouse (Balb/C) spleen B cells cultured with LPS and mouse IL-4; IgE in culture supernatant by ELISA
Procedure: After the spleen was enucleated from a mouse (Balb/C, male, aged 8 weeks) and shredded in 0.3 wt. % BSA/HBSS, single cells were obtained using a 200-mesh screen. The single cells were then hemolyzed by a 0.75 wt. % ammonium chloride·17 mmol/L Tris solution and a splenocyte suspension (1×10^7/mL) was prepared using RPMI 1640 medium/25 mmol/L HEPES/0.3 wt. % BSA. After the suspension was reacted with a rat anti-mouse Thy-1,2 monoclonal antibody (product of Cedarlane Co.) at 4° C. for 1 hour, the reaction mixture was centrifuged and the sediment cells were suspended again (1×10^7/mL, RPMI/HEPES/BSA). After the suspension-was reacted with a low-cytotoxic rabbit complement (product of Cedarlane Co.) at 37° C. for 1 hour, killed cells were removed by specific gravity centrifugation using lympholyte M (product of Cedarlane Co.) to obtain a B cell fraction as viable cells.
After culturing B cells ([…]) for one day together with LPS (E. coli 026:B6, product of DIFCO Co.) on a 96-well plate, mouse IL-4 (product of Genzyme Co.) was added. The mixture was cultured for further 7 days. Each test compound was added on the first day of the culture. After culturing, the amount of IgE antibody in a culture supernatant was assayed by ELISA, and the inhibitory activity of the test compound against production of an IgE antibody was calculated.

| SMILES | melting point | IC50 [1] [nM] |
| --- | --- | --- |
| COc1cc(-c2ccc(C(=O)N3CCN(CCCN4CCN(C(=O)c5ccc(-c6cc(OC)c(OC(C)C)c(OC)c6)cc5)CC4)CC3)cc2)cc(OC)c1OC(C)C (as salt: methanesulfonate) [Example 2, 1,3-Bis [4-[4-(4-isopropoxy-3,5-dimethoxyphenyl)benzoyl]-1-piperazinyl]propane Dimethanesulfonate] | 235.5 °C (dec.) |  |
| CCCOc1c(OC)cc(-c2ccc(C(=O)N3CCN(CCCN4CCN(C(=O)c5ccc(-c6cc(OC)c(OCCC)c(OC)c6)cc5)CC4)CC3)cc2)cc1OC (as salt: hydrochloride) [Example 6, 1,3-Bis[4-[4-(3,5-dimethoxy-4-propoxyphenyl)benzoyl]-1-piperazinyl]propane Dihydrochloride] | 266 °C (dec.) |  |
| COc1cc(-c2ccc(C(=O)N3CCN(CCCN4CCN(C(=O)c5ccc(-c6cc(OC)c(OC(C)C)c(OC)c6)cc5)CC4)CC3)cc2)cc(OC)c1OC(C)C [Example 2, 1,3-Bis [4-[4-(4-isopropoxy-3,5-dimethoxyphenyl)benzoyl]-1-piperazinyl]propane Dimethanesulfonate] |  | 200 |
| COc1cc(-c2ccc(C(=O)N3CCN(CCCN4CCN(C(=O)c5ccc(-c6cc(OC)c(OC)c(OC)c6)cc5)CC4)CC3)cc2)cc(OC)c1OC [Example 1, 1,3-Bis[4-[4-(3,4,5-trimethoxyphenyl)benzoyl]-1-piperazinyl]propane Dihydrochloride] |  | 100 |
| COc1cc(-c2ccc(C(=O)N3CCN(CCCN4CCN(C(=O)c5ccc(-c6cc(OC)c(C(C)=O)c(OC)c6)cc5)CC4)CC3)cc2)cc(OC)c1C(C)=O [Example 5, 1,3-Bis[4-[4-(4-acetyl-3,5-dimethoxyphenyl)benzoyl]-1-piperazinyl]propane Dihydrochloride] |  | 600 |
| COc1cc(-c2ccc(C(=O)N3CCN(CCCN4CCN(C(=O)c5ccc(-c6cc(OC)c(SC)c(OC)c6)cc5)CC4)CC3)cc2)cc(OC)c1SC [Example 3, 1,3-Bis[4-[4-(3,5-dimethoxy-4-methylthiophenyl)benzoyl]-1-piperazinyl]propane Dihydrochloride] |  | 80 |
| CCOc1c(OC)cc(-c2ccc(C(=O)N3CCN(CCCN4CCN(C(=O)c5ccc(-c6cc(OC)c(OCC)c(OC)c6)cc5)CC4)CC3)cc2)cc1OC [Example 4, 1,3-Bis[4-[4-(4-ethoxy-3,5-dimethoxyphenyl)benzoyl]-1-piperazinyl]propane Dimethanesulfonate] |  | 400 |
| CCCOc1c(OC)cc(-c2ccc(C(=O)N3CCN(CCCN4CCN(C(=O)c5ccc(-c6cc(OC)c(OCCC)c(OC)c6)cc5)CC4)CC3)cc2)cc1OC [Example 6, 1,3-Bis[4-[4-(3,5-dimethoxy-4-propoxyphenyl)benzoyl]-1-piperazinyl]propane Dihydrochloride] |  | 300 |
| CCOc1c(OC)cc(-c2ccc(C(=O)N3CCN(CCCN4CCN(C(=O)c5ccc(-c6cc(OC)c(OCC)c(OC)c6)cc5)CC4)CC3)cc2)cc1OC (as salt: methanesulfonate) [Example 4, 1,3-Bis[4-[4-(4-ethoxy-3,5-dimethoxyphenyl)benzoyl]-1-piperazinyl]propane Dimethanesulfonate] | 245 °C (dec.) |  |
| COc1cc(-c2ccc(C(=O)N3CCN(CCCN4CCN(C(=O)c5ccc(-c6cc(OC)c(C(C)=O)c(OC)c6)cc5)CC4)CC3)cc2)cc(OC)c1C(C)=O (as salt: hydrochloride) [Example 5, 1,3-Bis[4-[4-(4-acetyl-3,5-dimethoxyphenyl)benzoyl]-1-piperazinyl]propane Dihydrochloride] | 240 °C (dec.) |  |
